Data set [1] concerns T. gondii. Set-up: method as in PMID 32968076. The note with it: read-out: IC50 against T. gondii; cited from earlier work.
The nature of data set [2]: Kinetic aqueous solubility, turbidimetric assay. The note with it: for solubility at 4 h: aqueous buffer, kinetic from dmso stock, absorbance 620 nm. Type of data set: physicochemical. On the procedure: The kinetic solubility of the complexes was determined by means of a turbidimetric assay. The complexes were first dissolved in dimethyl sulfoxide (DMSO) which was then serially diluted in either phosphate buffered saline (PBS) or 4-(2-hydroxyethyl)-1-piperazineethanesulfonic acid (HEPES). The extent of precipitation was then measured using the absorbance at 620 nm.
PBS was prepared by dissolving one PBS tablet in 200 mL of distilled water at 25 °C yielding a buffered solution containing 10 mM phosphate buffer, 3.0 mM KCl and 140 mM NaCl. The pH was then confirmed to be at 7.4 with a pH meter. A 0.025 M HEPES buffer was prepared by dissolving HEPES free acid 5.00 mmol in distilled water (±180 mL) and titrating the solution with 0.100 M NaOH until a pH 7 was reached, the volume was then made up to 200 mL using distilled water. A 10.0 mM stock of each drug was prepared in DMSO. […] 4 μL of the drugs was then pipetted into a 96-well plate loaded with 196 μL of either the desired buffer solution or DMSO. The test plates were then incubated at 37 °C for 4 hours following which the UV-Vis absorbance was measured at 620 nm and the absorbances corrected by subtracting the blank.

The test system of the next data set is PNT1A cells. Put plainly: MTT cell viability assay, PNT1A. Type of data set: cell-based, human. The note with it: 48 h. On the procedure: (§1) To assess the cytotoxicity of the four compounds a MTT cell viability assay using human embryonic kidney (HEK293) and human prostatic (PNT1A) cell lines were performed. […] The long chain compounds C1 and C3 were also shown to be non-cytotoxic towards the HEK293 cell line.
(§2) The immortalised human prostatic epithelial cell line, PNT1A (Sigma Aldrich, 95012614) was cultured in RPMI-1640 containing 10% foetal calf serum (Life Technologies, South Africa). The human embryonic kidney cell line HEK293 (ATCC) was cultured in DMEM (Life Technologies, South Africa). Both cell lines were cultured at 37 °C under 5% CO2 with 1% penicillin and streptomycin. Cancer cell cytotoxicity was evaluated using the MTT viability assay according to our previous method.[49] Briefly, cells were seeded at a density of 3 × 10^3 cells per well in 96-well plates and allowed to settle overnight. A 100 mM stock of C1/C2 and a 50 mM stock solution of C3/C4 in DMSO was prepared from which dilutions were made. The compound was then added to the cells in triplicate to obtain the indicated concentrations and 0.1% DMSO. Controls included cells treated with […] DMSO alone. After 48 h, 10 μL of 5 mg mL^−1 MTT (3-(4,5-dimethylthiazol-2-yl)-2,5-diphenyltetrazolium bromide) (Sigma-Aldrich) was added, and incubated with the cells for 4 h, followed by addition of 100 μL 10% SLS, 0.01 M HCL. The plates were read at 595 nm on a Multiscan FC plate reader (Thermo Scientific) and the data was fitted to a variable slope dose–response curve using Graphpad prism v6 to obtain the cytotoxicity IC50. The assay was repeated independently three times where inhibition was observed.
In general terms: Tetrazolium assays rely on reduction of a dye to a coloured formazan, in cell work by metabolically active cells.

The test system of data set [3] is T. gondii (ΔKu80::mNeonGreen). Put plainly: T. gondii growth inhibition assay (mNeonGreen fluorescence). Type of data set: cell-based, Toxoplasma gondii. On the procedure: […]. The rate of hydrolysis of C2 and C4 is closely correlated to the activity seen against T. gondii, such that the more readily the complex separates into its constituents, parts the better the overall activity.
To further investigate whether the accumulation of ROS was implicated in the MoA, the growth inhibition studies were repeated in the presence of the ROS scavenger N-acetyl cysteine (NAC) (Table 5).
Growth inhibition assays were performed in black, clear-bottomed 96 well plates preseeded with Human foreskin fibroblasts (HFFs) as described previously.[48] ΔKu80:mNeonGreen T. gondii were counted using a hemeocytometer and media from the host-cell seeded plate was aspirated and replaced with either 200 μL of D3 or 200 μL of media + 5000 parasites per well. Infected cells were incubated for 2 hours at 37 °C with 5% CO2 to allow for invasion. Following this, the media was removed and replaced with 100 μL fresh media. 100 μL of media containing 100 μM of the indicated drug in sterile DMSO was added and serially diluted. The parasites were then incubated for four days at 37 °C with 5% CO2 then flourescense read using the PHERAstar microplate reader. After removal of background, fluorescence values were normalised to untreated and plotted. Data analysis and non-linear regression was performed in Prism.

In the next data set the test system is P. falciparum, NF54. Description: P. falciparum growth inhibition assay (Malstat). Type of data set: cell-based, Plasmodium falciparum. The note with it: 72 h, maximum concentration tested 6000 nM, three independent experiments in triplicate, ± SEM, read-out: IC50 against P. falciparum, NF54. The protocol:
The antimalarial activities of C1 to C4 and F1 to F3 were determined against the wild-type drug sensitive strain of P. falciparum, NF54. […]. Further, a close link between activity and oxidation potentials of the drugs was found. The lower the oxidation potential of the ferrocene moiety, the higher the activity of the final compound, giving directions for future compound development.
The drugs were prepared as 10 mM stocks in sterile DMSO. The drugs were then diluted using freshly prepared growth medium to the desired testing concentrations. Chloroquine and artesunate were used as standards. A full dose–response was preformed using a 96-well plate assay and the IC50 values determined. The maximum concentration tested was 6 μM which was then serially diluted 2-fold in growth media. The plates were incubated at 37 °C for 72 h at 3% O2 and 4% CO2. After 72 h the wells were resuspended and 15 μL of the suspension was transferred to a duplicate plate containing 100 μL of Malstat reagent and 25 μL of nitroblue tetrazolium solution. The plates were allowed 20 minutes in the dark to develop and the absorbance of each well was measured using UV-Vis at 620 nm.

The nature of data set [4]: Aqueous stability (hydrolysis) by UV-Vis kinetic scan in 10% MeOH (aq). The note with it: change in absorbance at 254 nm over one hour, ExpDec1 fit. Type of data set: physicochemical. The protocol: Since biological systems are comprised of water, the behavior and stability of a drug in aqueous media is important. To determine the stability, each complex was dissolved in MeOH and then diluted to 10% MeOH (aq). The solutions were then monitored by UV-Vis spectroscopy using a kinetic scan in the range 190–1100 nm over 1 hour. […] Hydrolysis was also supported by RP-HPLC in which new peaks emerged corresponding to the starting ferrocene precursors, F2 and F4. […] […] The major difference being between C1/C2 and C3/C4 is the nature of the linkage either being an ester or an amide bond. It is expected that the hydrolysis of C2 would occur quicker due to the more labile nature of the ester bond.
UV-Vis studies were performed by dissolving each complex in methanol to a concentration of 1 mM. This was then diluted using distilled water in a 10% methanol/water mixture giving a final concentration of 100 μM. The complexes were then monitored using a kinetic scan between the range 190–1100 nm scanning each minute over the course of one hour. […]

The nature of data set [5]: Cyclic voltammetry (oxidation/reduction potentials). The note with it: Ag/AgCl electrode, scan rate 100 mV s^−1, 0.100 M [NBu4][PF6] in MeCN. It counts as physicochemical.
The next data set relates to HEK293 cells. Description: MTT cell viability assay, HEK293. It counts as cell-based, human. The note with it: 48 h. The protocol:
as §1, §2

In data set [6] the test system is clinically resistance (CQ-R) isolates of P. falciparum. Details: method as in PMID 21894260. The note with it: cited from earlier work.
In data set [7] the test system is T. gondii. Put plainly: Determination of intracellular ROS levels with CellROX by flow cytometry. The note with it: 5 μM, 6 hours, 50 000 parasites, vs untreated. Type of data set: cell-based, Toxoplasma gondii. The protocol: Since both ferrocene and artesunate are able to generate ROS, we attempted to quantify the intracellular ROS levels in the parasite using CellROX, a compound which fluoresces in the presence of ROS. Treatment with artesunate was included as positive control as previous studies have linked artesunate treatment to ROS accumulation.[44] The parasites were treated with 5 μM of complexes C1, C3 and C4, and incubated for 6 hours. […] Since T. gondii rely predominately on heme biosynthesis as opposed to incorporation of heme from host hemoglobin, the concentration of iron present in the parasite is lower.[45] But, by incorporating an iron center in the molecule the slower activation may be circumvented leading to quicker cell death and a decreased CellROX reading.
Fig. 5 CellROX fluorescence quantified by flow cytometry from 50 000 parasites. T. gondii were untreated (grey) or treated for 6 hours with 5 μM compounds (blue) or artesunate (red) as a positive control.
Intracellular parasites were treated with 5 μM of the drug and incubated at 37 °C with 5% CO2 for either 18 hours or 6 hours. The parasites were released from host cells by scraping and syringing followed by passing through 3 μm filters to remove host-cell debris. The parasites were spun down at 6000 RPM for 10 minutes and resuspended in 500 μL PBS. 100 μL of the parasite suspension was placed in a FACS tube and a stock solution of CellROX dye in PBS (1 : 125 dilution) was added to this. This was then incubated in the dark at 37 °C for 1 hour and then read using a BD Celesta. Parasites were gated on forward and side scatter and on mNeonGreen fluorescence and histograms of Cy5 signal presented. Data analysis was performed using Flowjo.
In general terms: A flow cytometer gives signals particle by particle.

Several values for one entry are separate records, joined by “and”; a condition that tells them apart may be missing. Identical values can stand only once. Like-named read-outs stand apart in the source and are kept apart here.

The values below come from PMC10628858, “Investigation of new ferrocenyl-artesunate derivatives as antiparasitics” (Dalton Transactions (Cambridge, England : 2003), 2023).

In general, IC50 refers to the concentration needed to halve the response being measured. For orientation: solubility means the concentration that dissolves in the medium under given conditions.

As to `C[C@H]1[C@@H](O)O[C@@H]2O[C@@]3(C)CC[C@H]4[C@H](C)CC[C@@H]1[C@@]24OO3` [DHA, dihydroartemisinin], the IC50 in the data set with T. gondii [1] was ~66 nM.
With `CC1CCC2C(C)C(OC(=O)CCC(=O)OC[c-]3cccc3)OC3OC4(C)CCC1C32OO4.[Fe+2].c1cc[cH-]c1` (centres unmarked) [Compound C2], in data set [2] (turbidimetric assay, buffer not named), the “Solubility range” value is 23 to 47 µg/mL. The IC50 with PNT1A cells is > 100000 nM. For the same compound, in data set [3] (four days, in HFF host cells, three independent experiments in triplicate, ± SEM, read-out: IC50 against T. gondii), the IC50 came to 280 ± 22 nM. Moreover, the IC50 in the data set with P. falciparum, NF54 was 19 ± 4 nM. In addition, in data set [4], the Half-life turned out to be 3.0 ± 0.16 min and the “Rate constant (hydrolysis)” value stood at 0.23 ± 0.013 min⁻¹. For the same compound, in data set [5], the “E 1/2” value was 0.503 V, the “E Ox” value is listed as 0.561 V, the “E Red” value turned out to be 0.445 V and the ΔE worked out at 0.116 V. This compound showed an IC50 in the data set with HEK293 cells of 53000 ± 5700 nM.
For `[Fe+2].c1cc[cH-]c1.c1cc[cH-]c1` [Ferrocene, reference compound], in data set [5], the “E 1/2” value came to 0.446 V, the “E Ox” value is 0.499 V, the “E Red” value worked out at 0.393 V and the ΔE stood at 0.106 V.
`CN(C)Cc1ccc[c-]1CNc1ccnc2cc(Cl)ccc12.[Fe+2].c1cc[cH-]c1` (centres unmarked) [Ferroquine, ferroquine]: the “Activity against CQ-R isolates of P. falciparum” value in data set [6] is “less than 30 nM”.
Consider `C[C@H]1[C@H](OC(=O)CCC(=O)O)O[C@@H]2O[C@@]3(C)CC[C@H]4[C@H](C)CC[C@@H]1[C@@]24OO3` [Artesunate, artesunate], for which, in the data set with T. gondii [7], the “Change in CellROX signal (intracellular ROS)” value is “increase”. Besides, the IC50 in [3] (Toxoplasma gondii, 96 h, read-out: IC50 against T. gondii) was determined as 200 ± 6 nM; in [3] (Toxoplasma gondii, read-out: IC50 + NAC against T. gondii) it was 310 ± 28 nM; with P. falciparum, NF54 (Plasmodium falciparum, NF54), 3 ± 1 nM.
Turning to `O=C(NCCO)[c-]1cccc1.[Fe+2].c1cc[cH-]c1` [Compound F1, N-(Hydroxyethyl)ferrocenamide], in the data set with P. falciparum, NF54, the IC50 was > 6000 nM.
In the case of `OC[c-]1cccc1.[Fe+2].c1cc[cH-]c1` [Compound F2, ferrocene methanol], the IC50 with P. falciparum, NF54 came to 3400 ± 96 nM.
Regarding `COC(=O)[C@H]1[C@H]2C[C@@H]3c4[nH]c5cc(OC)ccc5c4CCN3C[C@H]2C[C@@H](OC(=O)c2cc(OC)c(OC)c(OC)c2)[C@@H]1OC` [Reserpine, reference compound], the solubility at 4 h in data set [2] (HEPES buffer with 2% DMSO, HEPES pH 7, 37 °C, read-out: Aqueous solubility range, HEPES) was 40 µM to 80 µM and 24 µg/mL to 50 µg/mL; in data set [2] (phosphate buffered saline (PBS) with 2% DMSO, PBS pH 7.4, 37 °C, read-out: Aqueous solubility range, PBS) it was 20 µM to 40 µM and 12 µg/mL to 24 µg/mL.
Regarding `NCCNC(=O)[c-]1cccc1.[Fe+2].c1cc[cH-]c1` [Compound F3, N-(2-aminoethyl)ferrocenamide], in the data set on P. falciparum, NF54, the concentration for half-maximal inhibition (IC50) is > 6000 nM.
